Residue numbers refer to the chain shown, from its start.
What was measured:
Format in all cases: biochemical
[1] = target: T1, Pseudomonas sp. SE83 CPC acylase AcyII, wild type, SEQ ID NO: 2 (alpha-subunit SEQ ID NO: 4, beta-subunit SEQ ID NO: 5) (Pseudomonas sp., UniProt P15558); experiment: End-product inhibition by 7-ACA (inhibition constant), wild-type CPC acylase; conditions: end-product inhibition of CPC conversion; pH 8.5
T1 construct: made in house; host or cells: E. coli MC1061
T1 sequence (P15558 2-230): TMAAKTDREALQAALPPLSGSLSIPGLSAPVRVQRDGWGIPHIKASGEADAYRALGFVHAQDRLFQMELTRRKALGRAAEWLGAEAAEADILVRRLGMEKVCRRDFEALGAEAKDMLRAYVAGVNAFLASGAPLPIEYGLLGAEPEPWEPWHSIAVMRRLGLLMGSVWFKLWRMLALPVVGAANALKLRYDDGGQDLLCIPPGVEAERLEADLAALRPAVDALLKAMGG
T1 sequence (P15558 240-774): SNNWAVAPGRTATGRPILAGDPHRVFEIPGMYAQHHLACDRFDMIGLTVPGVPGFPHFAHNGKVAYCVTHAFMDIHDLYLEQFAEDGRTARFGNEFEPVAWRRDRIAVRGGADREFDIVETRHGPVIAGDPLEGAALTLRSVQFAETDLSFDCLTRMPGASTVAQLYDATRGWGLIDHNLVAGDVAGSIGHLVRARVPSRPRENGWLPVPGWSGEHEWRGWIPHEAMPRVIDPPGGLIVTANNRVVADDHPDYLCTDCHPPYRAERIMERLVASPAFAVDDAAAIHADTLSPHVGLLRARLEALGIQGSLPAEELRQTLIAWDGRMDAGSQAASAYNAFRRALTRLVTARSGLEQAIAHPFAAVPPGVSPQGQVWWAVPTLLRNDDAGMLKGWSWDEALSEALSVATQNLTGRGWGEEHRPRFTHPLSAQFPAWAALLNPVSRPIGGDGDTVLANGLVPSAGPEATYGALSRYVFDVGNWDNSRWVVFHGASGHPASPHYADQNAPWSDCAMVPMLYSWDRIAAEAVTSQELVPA
Protocol: (§1) The enzyme activity of CPC acylase mutant to CPC was measured according to the method described by Park et al. with minor modifications as follows (Park, et al., Kor. J. Appl. Microbiol. Biotechnol. 23: 559-564, 1995). A substrate solution was prepared by dissolving CPC (purity 74.2%; CJ Corp., Korea) in 0.1 M Tris-HCl buffer solution (pH 8.0) at a concentration of 20 mg/ml and adjusting pH to 8 with 1 N NaOH. 20 μl of the CPC solution was mixed with 20 μl of the crude enzyme solution prepared above and the reaction mixture was incubated at 37° C. for 5 min. After the reaction, the mixture (200 μl) of 50 mM NaOH and 20% glacial acetic acid (1:2) was added thereto to stop the reaction. 200 μl of the supernatant recovered from the reaction mixture by centrifugation was mixed with 40 μl of 0.5% (w/v) PDAB (p-dimethylaminobenzaldehyde; Sigma, USA) dissolved in a methanol and the reaction mixture was incubated at 37° C. for 10 min. After the reaction, the absorbance of reaction mixture was measured at 415 nm and quantified by comparing with a calibration curve of standard material. […] Meanwhile, the specific activity of CPC acylase mutant for CPC was determined by measuring the amount of protein remaining in the enzyme solution according to the method described by Bradford (Bradford, M., Anal. Biochem. 72: 248-254, 1976) and representing it as an active unit corresponding to 1 mg of protein. […]

[2] = target: T2, Pseudomonas sp. SE83 CPC acylase AcyII sixfold mutant S12, V121αA/G139αS/F58βN/I75βT/I176βV/S471βC (alpha-subunit SEQ ID NO: 7, beta-subunit SEQ ID NO: 8) (Pseudomonas sp., UniProt P15558, F297N/G140S/I314T/I415V/S710C/V122A); experiment: End-product inhibition by 7-ACA (inhibition constant), S12 sixfold mutant; conditions: end-product inhibition of CPC conversion; purified enzyme; pH 8.5
T2 construct: made in house; host or cells: E. coli MC1061
T2 sequence (P15558 2-230 V122A/G140S): T1 sequence (P15558 2-230) with V121A, G139S
T2 sequence (P15558 240-774 F297N/I314T/I415V/S710C): T1 sequence (P15558 240-774) with F58N, I75T, I176V, S471C
Protocol: as §1

[3] = target: T3, Pseudomonas sp. SE83 CPC acylase AcyII fivefold mutant F169αY/M31βL/F58βM/H70βS/I176βV (mI176) (Pseudomonas sp., UniProt P15558, F170Y/F297M/H309S/I415V/M270L); experiment: CPC hydrolysis kinetics (Lineweaver-Burk plot), fivefold mutant; conditions: substrate CPC; purified enzyme; 0.1 M Tris-HCl pH 8.0, 37° C.; Lineweaver-Burk plot
T3 construct: made in house; host or cells: E. coli MC1061
T3 sequence (P15558 240-774 M270L/F297M/H309S/I415V): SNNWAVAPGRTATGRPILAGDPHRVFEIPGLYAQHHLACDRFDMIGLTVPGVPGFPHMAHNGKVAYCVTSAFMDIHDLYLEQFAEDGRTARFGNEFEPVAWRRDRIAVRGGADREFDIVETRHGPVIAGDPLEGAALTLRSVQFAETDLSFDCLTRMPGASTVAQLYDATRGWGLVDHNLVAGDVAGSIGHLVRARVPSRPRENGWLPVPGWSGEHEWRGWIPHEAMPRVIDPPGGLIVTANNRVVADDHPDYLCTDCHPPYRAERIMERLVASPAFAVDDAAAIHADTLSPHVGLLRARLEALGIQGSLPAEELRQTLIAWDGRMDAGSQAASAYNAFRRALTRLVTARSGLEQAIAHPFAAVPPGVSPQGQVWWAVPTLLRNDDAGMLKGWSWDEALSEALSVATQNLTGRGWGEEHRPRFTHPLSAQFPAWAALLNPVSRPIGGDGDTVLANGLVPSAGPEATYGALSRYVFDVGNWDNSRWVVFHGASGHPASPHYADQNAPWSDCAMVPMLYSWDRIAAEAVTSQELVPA
T3 sequence (P15558 2-230 F170Y): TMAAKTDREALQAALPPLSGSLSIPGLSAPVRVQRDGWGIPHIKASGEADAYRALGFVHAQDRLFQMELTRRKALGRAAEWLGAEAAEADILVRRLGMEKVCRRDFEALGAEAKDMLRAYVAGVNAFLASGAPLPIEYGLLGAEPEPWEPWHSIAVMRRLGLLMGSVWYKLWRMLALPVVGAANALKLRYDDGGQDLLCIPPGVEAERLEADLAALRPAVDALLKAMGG
Protocol: (§2) The enzyme activity of CPC acylase mutant to CPC was measured according to the method described by Park et al. with minor modifications as follows (Park, et al., Kor. J. Appl. Microbiol. Biotechnol. 23: 559-564, 1995). A substrate solution was prepared by dissolving CPC (purity 74.2%; CJ Corp., Korea) in 0.1 M Tris-HCl buffer solution (pH 8.0) at a concentration of 20 mg/ml and adjusting pH to 8 with 1 N NaOH. 20 μl of the CPC solution was mixed with 20 μl of the crude enzyme solution prepared above and the reaction mixture was incubated at 37° C. for 5 min. After the reaction, the mixture (200 μl) of 50 mM NaOH and 20% glacial acetic acid (1:2) was added thereto to stop the reaction. 200 μl of the supernatant recovered from the reaction mixture by centrifugation was mixed with 40 μl of 0.5% (w/v) PDAB (p-dimethylaminobenzaldehyde; Sigma, USA) dissolved in a methanol and the reaction mixture was incubated at 37° C. for 10 min. After the reaction, the absorbance of reaction mixture was measured at 415 nm and quantified by comparing with a calibration curve of standard material. At this time, 1 unit has been defined as the amount of enzyme capable to produce 1 μmole of 7-ACA from CPC per minute. Meanwhile, the specific activity of CPC acylase mutant for CPC was determined by measuring the amount of protein remaining in the enzyme solution according to the method described by Bradford (Bradford, M., Anal. Biochem. 72: 248-254, 1976) and representing it as an active unit corresponding to 1 mg of protein. The reactivity of CPC acylase mutant to CPC was determined by the following steps of adding the same amount of protein to a reaction mixture, performing an enzyme reaction for a fixed time, measuring the amount of 7-ACA produced in the reaction mixture, and representing it as a relative value. The end-product inhibition by 7-ACA was determined by adding a protein corresponding to the same active unit to a reaction mixture, performing an enzyme reaction for a fixed time; measuring the amount of 7-ACA produced in the reaction mixture, and representing it as a relative value.
(§3) E. coli MC1061 transformant containing the recombinant plasmid introduced with the wild-type or the inventive CPC acylase mutant gene was cultivated in 1 l of a terrific broth (1.2% Bacto-Trypton, 2.4% Yeast Extract, 0.4% glycerol, […]) containing […] of chloramphenicol at 30° C. for 16 hr to obtain a pre-culture solution. 10 ml of the pre-culture solution was inoculated into the same medium, and then, cultured at 25° C., 200 rpm for 48 hr with vigorous shaking. The culture solution was subjected to centrifugation at 4° C., 8,000 rpm for 10 min to separate a precipitate, and the precipitate washed twice with 20 mM Tris-HCl buffer solution (pH 8.0). […]

[4] = system: Pseudomonas sp. SE83 CPC acylase AcyII fivefold mutant F169αY/M31βL/F58βM/H70βS/I176βV (mI176); experiment: as above; conditions: substrate CPC; fivefold mutant vs wild-type
Protocol: as §2, §3

Compound | Ki [1] [µM] | Ki [2] [µM] | Kcat [3] [s⁻¹] | Kcat/Km [3] [M⁻¹ s⁻¹] | higher reaction efficiency to CPC as compared with the wild-type enzyme [4] | lower Km value as compared with the wild-type enzyme [4]
CC(=O)OCC1=C(C(=O)O)N2C(=O)[C@@H](N)[C@H]2SC1 [7-ACA, 7-aminoacephalosporanic acid] | 400 | 1900 |  |  |  | 
CC(=O)OCC1=C(C(=O)O)N2C(=O)[C@@H](NC(=O)CCC[C@@H](N)C(=O)O)[C@H]2SC1 [CPC, Cephalosporin C] |  |  | 2.4 | 300 | about 15 fold | about 6.3 fold

From patent US7592168B2, “Cephalosporin C acylase mutant and method for preparing 7-ACA using same” (Sandoz AG, priority 2003, dated 2009)
